“And” between values parts separate entries of the source, which are not always exact repeats. Equal entries are not always repeated.
Experiments:
Type in all cases: binding
[1] = biological target: T1, human Gal-1 (Homo sapiens, UniProt P09382); assay: Competitive solid-phase assay (SPA), immobilized asialofetuin, Gal-1; details: mean ± S.D., three independent experiments
T1 construct: made in house; host or cells: Escherichia coli BL21 (DE3)
Description: (§1) The assay was adapted from Rapoport et al. (2010) ([88]). Briefly, 96-well plates (flat-bottom) were coated with 10 μg/ml asialofetuin (ASF, Sigma-Aldrich) in sodium carbonate buffer (pH 9.6) and incubated overnight at 4 °C. Then, wells were washed three times with 100 μl/well PBS-Tween 0.05% (w/v) and blocked with 100 μl/well PBS-bovine serum albumin (BSA) 2% (1 h, room temperature (RT)) in a humid chamber. Meanwhile, equal volumes of human recombinant Gal-1, -3, -4, -7, and -12 (20–40 μg/ml) in PBS-BSA 0.3% buffer were preincubated with the corresponding inhibitors in serial dilutions (2 h, 37 °C). After washing, galectins were detected using the corresponding antigalectin primary detection antibodies in PBS-BSA 0.3% w/v (1 h at RT). For Gal-1, wells were incubated with an in-house purified 100 ng/ml biotinylated rabbit anti–human Gal-1 polyclonal immunoglobulin G. For Gal-3, -4, and -7, a 1:500 dilution of the corresponding biotinylated anti-human galectin antibodies was used (BAF1154, BAF1227, and MAB13391, respectively, R&D Systems). For Gal-12, a rabbit anti-human Gal-12 polyclonal antibody (Santa Cruz Biotechnology, 1:700) was used. For Gal-1, -3, -4, and -7, plates were rinsed three times before adding 0.33 μg/ml horseradish peroxidase (HRP)-labeled streptavidin (Sigma-Aldrich) for 30 min. For Gal-12, an anti-rabbit secondary antibody conjugate coupled to HRP was incubated for 1 h at RT in PBS-BSA 0.3% w/v. After washing, 100 μl TMB solution (0.1 mg/ml tetramethylbenzidine and 0.06% H2O2 in citrate-phosphate buffer, pH 5.0) was added to plates. The reaction was stopped by adding a 2N H2SO4 solution. Absorbance was determined at 450 nm in a Multiskan MS microplate reader (Thermo Fisher Scientific).

[2] = biological target: T2, human Gal-7 (Homo sapiens, UniProt P47929); assay: Competitive solid-phase assay (SPA), immobilized asialofetuin, Gal-7; details: for IC50: competitive SPA, immobilized asialofetuin, mean ± S.D., three independent experiments; for affinity of Gal-7 weaker than that shown by Gal-1: SPA, Gal-7 versus Gal-1
T2 construct: made in house; host or cells: Escherichia coli BL21 (DE3)
Description: as §1

[3] = biological target: T3, human Gal-3 (Homo sapiens, UniProt P17931); assay: Competitive solid-phase assay (SPA), immobilized asialofetuin, Gal-3; details: mean ± S.D., three independent experiments
T3 construct: made in house; host or cells: Escherichia coli BL21 (DE3)
Description: as §1

[4] = biological target: T4, human Gal-4 (Homo sapiens, UniProt P56470); assay: Competitive solid-phase assay (SPA), immobilized asialofetuin, Gal-4; details: mean ± S.D., three independent experiments
T4 construct: His6-SUMO (N, cleaved yes); made in house; host or cells: Escherichia coli BL21 (DE3)
T4 sequence (P56470 1-323): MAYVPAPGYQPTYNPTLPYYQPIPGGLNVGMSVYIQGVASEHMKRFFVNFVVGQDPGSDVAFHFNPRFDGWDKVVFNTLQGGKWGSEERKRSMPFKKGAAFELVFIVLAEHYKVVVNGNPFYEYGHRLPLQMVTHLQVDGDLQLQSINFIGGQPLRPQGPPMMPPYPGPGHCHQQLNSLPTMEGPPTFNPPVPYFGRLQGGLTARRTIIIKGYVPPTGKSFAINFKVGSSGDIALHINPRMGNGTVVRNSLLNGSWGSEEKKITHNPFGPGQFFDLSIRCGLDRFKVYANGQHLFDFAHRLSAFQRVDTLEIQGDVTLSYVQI
Description: as §1

[5] = biological target: T5, human Gal-12 (Homo sapiens, UniProt Q96DT0); assay: Competitive solid-phase assay (SPA), immobilized asialofetuin, Gal-12; details: mean ± S.D., three independent experiments
T5 construct: To obtain full-length human Gal-12, we adapted our previously optimized procedure for murine Gal-12; made in house; host or cells: Escherichia coli Rosetta 2 (DE3)
T5 sequence (Q96DT0 1-336): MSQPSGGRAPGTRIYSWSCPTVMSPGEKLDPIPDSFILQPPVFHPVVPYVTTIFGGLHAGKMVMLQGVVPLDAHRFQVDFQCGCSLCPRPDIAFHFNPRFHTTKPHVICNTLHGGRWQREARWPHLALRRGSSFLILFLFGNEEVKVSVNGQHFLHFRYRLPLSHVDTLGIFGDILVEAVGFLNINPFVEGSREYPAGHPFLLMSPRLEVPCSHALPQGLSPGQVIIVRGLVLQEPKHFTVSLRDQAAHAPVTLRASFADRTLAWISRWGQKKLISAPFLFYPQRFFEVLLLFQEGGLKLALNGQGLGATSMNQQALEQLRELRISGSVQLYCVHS
Description: as §1

[6] = biological target: T2, human Gal-7; assay: Isothermal titration calorimetry (ITC), Gal-7; details: Gal-7, PBS, 298 K, n fixed to 1.00
Description: (§2) All ITC experiments were performed by using a NanoITC (TA Instruments) under previously optimized conditions ([89]). A typical titration involved 20 injections at 300 s intervals of 2.5 μl aliquots of a 2.5 to 10 mM ligand solution into the sample cell (volume 200 μl) containing the different galectins (30–100 μM). The solutions were prepared by dissolving the glycan ligands in degassed PBS buffer at 298 K. The titration cell was continuously stirred at 300 rev/min. The heats of dilution of the ligands in the buffer were subtracted from the titration data. […] Fitting was performed using the Nano Analyze software (TA Instruments; https://www.tainstruments.com/itcrun-dscrun-nanoanalyze-software/) to determine association constants (Ka) and the enthalpy change (ΔH). No reliable fit of the thermodynamic parameters could be obtained for binding affinities above 80 μM.

[7] = biological target: T3, human Gal-3; assay: Isothermal titration calorimetry (ITC), Gal-3; details: Gal-3, PBS, 298 K; for Kd: n fixed to 1.00
Description: as §2

[8] = biological target: T1, human Gal-1; assay: Isothermal titration calorimetry (ITC), Gal-1; details: Gal-1, PBS, 298 K; for Kd: n fixed to 1.00
Description: as §2

[9] = biological target: T5, human Gal-12; assay: Isothermal titration calorimetry (ITC), Gal-12; details: Gal-12, PBS, 298 K, n fixed to 1.00
Description: as §2

T1 sequence (P09382 whole entry): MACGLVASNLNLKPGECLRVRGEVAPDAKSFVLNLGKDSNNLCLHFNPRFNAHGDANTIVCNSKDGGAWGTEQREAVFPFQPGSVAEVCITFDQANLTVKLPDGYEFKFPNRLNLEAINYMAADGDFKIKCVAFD
T2 sequence (P47929 whole entry): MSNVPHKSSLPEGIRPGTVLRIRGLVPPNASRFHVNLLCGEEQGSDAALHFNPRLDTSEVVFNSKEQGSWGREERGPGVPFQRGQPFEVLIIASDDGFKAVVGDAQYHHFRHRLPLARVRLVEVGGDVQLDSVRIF
T3 sequence (P17931 whole entry): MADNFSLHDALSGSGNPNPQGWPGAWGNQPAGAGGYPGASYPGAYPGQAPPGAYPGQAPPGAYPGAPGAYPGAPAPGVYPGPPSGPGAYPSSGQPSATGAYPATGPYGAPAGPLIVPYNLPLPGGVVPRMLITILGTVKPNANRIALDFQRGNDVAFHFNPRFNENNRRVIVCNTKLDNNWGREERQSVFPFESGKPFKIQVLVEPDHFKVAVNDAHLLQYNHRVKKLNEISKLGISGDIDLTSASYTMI

IC50 [1] | IC50 [2] | IC50 [3] | IC50 [4] | IC50 [5] | Kd [6] | -TΔS [7] | ΔH [7] | Kd [7] | -TΔS [8] | ΔH [8] | Kd [8] | affinity of Gal-7 weaker than that shown by Gal-1 [2] | Kd [9] | SMILES
11.9 mM | 18.4 ± 0.3 mM | 9.1 ± 0.9 mM | 14.5 ± 0.7 mM | 4.5 ± 0.6 mM |  |  |  |  |  |  |  |  |  | CC1OC(OC2C(OC3C(CO)OC(O)C(O)C3OC3OC(C)C(O)C(O)C3O)OC(CO)C(O)C2O)C(O)C(O)C1O (stereo not drawn) [DFL, 2′,3-difucosyllactose]
2.6 mM and 2.61 mM | 7.2 ± 0.3 mM | 2.7 ± 0.5 mM | 25.1 ± 0.5 mM | 8.9 ± 1 mM |  |  |  |  |  |  |  |  |  | CC(=O)NC1C(OC2C(O)C(CO)OC(OC3C(CO)OC(O)C(O)C3OC3OC(C)C(O)C(O)C3O)C2O)OC(CO)C(O)C1OC1OC(CO)C(O)C(O)C1O (stereo not drawn) [LNFP V, lacto-N-fucopentaose V]
1.6 ± 0.1 mM | 2 mM | ~1.8 mM and 1.8 mM | 15.1 ± 0.2 mM | 30.1 ± 5 mM | 0.106 ± 0.008 mM |  |  |  |  |  |  |  |  | CC(=O)NC1C(OC2C(O)C(CO)OC(OC3C(CO)OC(O)C(O)C3O)C2O)OC(CO)C(O)C1OC1OC(CO)C(O)C(O)C1O (stereo not drawn) [LNT, lacto-N-tetraose]
0.6 ± 0.1 mM | 2.1 ± 0.8 mM | 0.5 ± 0.9 mM | 21.5 mM | 28.1 ± 5 mM |  | -5.02 ± 0.48 kcal/mol | -1.1 ± 0.096 kcal/mol | 0.04 ± 0.003 mM | -2.61 ± 0 kcal/mol | -3.04 ± 0.48 kcal/mol | 0.073 ± 0.007 mM | ca. 5 fold |  | CC(=O)NC1C(OC2C(O)C(CO)OC(OC3C(CO)OC(OC4C(O)C(CO)OC(OC5C(CO)OC(OC6C(O)C(CO)OC(OC7C(CO)OC(O)C(O)C7O)C6O)C(NC(C)=O)C5O)C4O)C(NC(C)=O)C3O)C2O)OC(CO)C(OC2OC(CO)C(O)C(O)C2O)C1O (stereo not drawn) [LNnO, lacto-N-neooctaose]
0.5 ± 0.1 mM | 3.3 mM | ~1.8 mM and 1.8 mM | 25.2 mM | 29.3 ± 6 mM |  |  |  | 0.095 ± 0.009 mM | -3.51 ± 0.19 kcal/mol | -2.15 ± 0.22 kcal/mol | 0.072 ± 0.008 mM | ca. 5 fold |  | CC(=O)NC1C(OC2C(O)C(CO)OC(OC3C(CO)OC(O)C(O)C3O)C2O)OC(CO)C(OC2OC(CO)C(O)C(O)C2O)C1O (stereo not drawn) [LNnT, lacto-N-neotetraose]
1.8 ± 0.1 mM | 4.3 ± 0.9 mM | 7.8 ± 0.8 mM |  | 9.2 ± 1 mM |  |  |  |  |  |  |  |  |  | CC(=O)NC1C(O)CC(OC2C(O)C(CO)OC(OC3C(O)C(CO)OC(OC4C(O)C(CO)OC(OC5C(CO)OC(O)C(O)C5O)C4O)C3NC(C)=O)C2O)(C(=O)O)OC1C(O)C(O)CO (stereo not drawn) [LSTa, sialyl-lacto-N-tetraose a]
8.2 ± 0.9 mM | 15.1 ± 2 mM | 9.5 ± 0.5 mM | 26.2 ± 0.9 mM | 2 ± 0.3 mM |  |  |  |  |  |  |  |  | 0.08 ± 0.009 mM | CC(=O)NC1C(O)OC(CO)C(OC2OC(CO)C(O)C(O)C2O)C1OC1OC(C)C(O)C(O)C1O (stereo not drawn) [Le^X, Lewis X trisaccharide]
5.7 ± 0.1 mM | 4.8 ± 0.9 mM | 39 ± 0.6 mM |  | 3.2 ± 0.4 mM |  |  |  |  |  |  |  |  | 0.151 ± 0.011 mM | CC(=O)NC1C(O)CC(OC2C(O)C(CO)OC(OC3C(CO)OC(O)C(O)C3OC3OC(C)C(O)C(O)C3O)C2O)(C(=O)O)OC1C(O)C(O)CO (stereo not drawn) [SFL, 3’-sialyl-3-fucosyllactose]

SMILES | IC50 [1] | IC50 [2] | IC50 [3] | IC50 [4] | IC50 [5] | Kd [6] | -TΔS [7] | ΔH [7] | Kd [7] | -TΔS [8] | ΔH [8] | Kd [8] | affinity of Gal-7 weaker than that shown by Gal-1 [2] | Kd [9]
CC(=O)NC1C(OC2C(O)C(CO)OC(OC3C(CO)OC(O)C(O)C3OC3OC(C)C(O)C(O)C3O)C2O)OC(CO)C(OC2OC(C)C(O)C(O)C2O)C1OC1OC(CO)C(O)C(O)C1O (stereo not drawn) [LAH, Lewis A antigen hexaose] |  | 22.2 ± 0.8 mM | 9.3 ± 0.6 mM | 30.4 ± 2 mM | 51.1 ± 5 mM |  |  |  |  |  |  |  |  | 
